Source: patent US20180094320A1, “IN VITRO DRUG METABOLISM REAGENT AND USES THEREOF” (priority 2016, published 2018)
Like-named read-outs stand apart in the source and are kept apart here.

Experiments:
human enterocytes = assay: 7-ethoxycoumarin O-deethylation (ECOD) activity in human enterocytes; format: in vitro ADME; details: Group D permeabilized enterocytes with cofactors compared with Groups A-C (intact ± cofactors, permeabilized without cofactors)
Procedure: The assay was performed essentially as disclosed in Example 2, wherein the in vitro reagent comprises enterocytes and exogenous drug metabolizing enzyme co-factors (NADPH, UPGA, and PAPS), herein referred to as “cofactors”. As comparators, intact enterocytes, that were not permeabilized, were used wherein one group was incubated with cofactors and another group was incubated without cofactors, each in the presence of the xenobiotic test compound. Permeabilized enterocytes incubated without cofactors were used as a control. The test groups were: Group A—intact enterocytes incubated without cofactors; Group B—intact enterocytes incubated with cofactors; Group C—permeabilized enterocytes incubated without cofactors (control); Group D—the in vitro reagent (permeabilized enterocytes incubated with cofactors). […] Permeabilization (by freezing without cryoprotectants followed by thawing) allows maximal interaction of the intracellular enzymes with the substrate (7-ethoxycoumarin), and the addition of cofactors overcomes the dilution of intracellular cofactors due to permeabilization.

[1] = known in vivo hepatic clearance, human; cited from earlier work
2J2 = molecular target: T1, 2J2 (Homo sapiens, UniProt P51589); assay: Pathway-selective substrate metabolism in human enterocytes, 2J2; format: in vitro ADME; details: Intact Cryopreserved Enterocytes; 30 min, 37° C.
T1 construct: enterocytes are isolated from human intestines by collagenase digestion; endogenous in cells; host or cells: primary human enterocytes, intact or permeabilized with cofactors
T1 sequence (P51589 1-502): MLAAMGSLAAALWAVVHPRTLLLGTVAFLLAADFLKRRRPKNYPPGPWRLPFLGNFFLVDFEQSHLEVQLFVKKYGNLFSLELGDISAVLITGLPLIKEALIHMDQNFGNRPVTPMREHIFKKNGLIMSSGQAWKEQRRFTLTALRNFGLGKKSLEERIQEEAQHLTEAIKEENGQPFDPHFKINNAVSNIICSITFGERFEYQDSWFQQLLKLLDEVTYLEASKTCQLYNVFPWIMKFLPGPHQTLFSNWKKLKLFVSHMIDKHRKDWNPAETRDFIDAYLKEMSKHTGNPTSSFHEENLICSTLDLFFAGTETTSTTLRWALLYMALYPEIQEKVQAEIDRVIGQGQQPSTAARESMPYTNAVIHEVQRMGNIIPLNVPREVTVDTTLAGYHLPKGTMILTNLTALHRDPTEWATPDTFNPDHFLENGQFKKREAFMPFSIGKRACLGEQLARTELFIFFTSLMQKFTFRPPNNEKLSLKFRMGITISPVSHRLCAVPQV

[2] = system: permeabilized human hepatocytes
Procedure: The drugs evaluated were added at a concentration of 1 μM to a hepatocyte culture of 1 million cells/ml.

[3] = system: permeabilized human hepatocytes; assay: Cofactor-directed metabolic pathway selection of coumarin metabolism; format: in vitro ADME; details: 75 micromolar coumarin, 30 min
Procedure: Intact human hepatocytes allow metabolism of a drug by all hepatic pathways, selection of a specific metabolic pathway for evaluation is not easily accomplished. […] The metabolism of coumarin was used as a model for cofactor directed metabolic pathway selection. See FIG. 12 for the co-factor directed pathway selection of coumarin metabolism with the present permeabilized human hepatocytes. The exogenous drug metabolizing enzyme co-factors used were 2 mM NADPH, 2 mM NADPH+1 mM PAPS and 2 mM NADPH+5 mM […], and no cofactor addition used as a control.

Structure (SMILES)	Observed in vivo CIsys [1] [mL/min/kg]	further results
CCOc1ccc2ccc(=O)oc2c1 [7-ethoxycoumarin]	–	7-ethoxycoumarin O-deethylation (ECOD) activity (human enterocytes): Highest activity
CN(C)C/C=C/C(=O)Nc1cc2c(Nc3ccc(F)c(Cl)c3)ncnc2cc1O[C@H]1CCOC1 [Afatinib]	15	–
Cc1cc(=O)n(-c2ccccc2)n1C [Antipyrine]	0.5	–
COc1ccc(CCN2CCC(Nc3nc4ccccc4n3Cc3ccc(F)cc3)CC2)cc1 [Astemizole]	–	Metabolic Activity, O-Demethyl Astemizole formation (2J2): BLQ
CC(C)NCC(O)COc1ccc(CCOCC2CC2)cc1 (stereo not drawn) [Betaxolol]	4.8	–
NC(=O)N1c2ccccc2C=Cc2ccccc21 [Carbamazepine]	0.4	–
O=P1(N(CCCl)CCCl)NCCCO1 (stereo not drawn) [Cyclophosphamide]	–	cytotoxicity on HEK 293 cells (cellular ATP content) (HEK293 cells; with permeabilized human hepatocytes (cofactor supplemented) vs boiled or no hepatocytes, 24 hours): enhanced
COc1ccc2c(c1)[C@]13CCCC[C@@H]1[C@H](C2)N(C)CC3 [Dextromethorphan]	8.6	Permeabilized Hepatocytes Average (predicted clearance) [2]: 7.3
CN1C(=O)CN=C(c2ccccc2)c2cc(Cl)ccc21 [Diazepam]	0.4	–
O=C(O)Cc1ccccc1Nc1c(Cl)cccc1Cl [Diclofenac]	4.2	–
O=P1(NCCCl)OCCCN1CCCl (stereo not drawn) [Ifosfamide]	–	cytotoxicity on HEK 293 cells (cellular ATP content) (HEK293 cells): enhanced
O=C1Nc2ccc(Cl)cc2C(c2ccccc2Cl)=NC1O (stereo not drawn) [Lorazepam]	1.1	–
O=c1ccc2ccccc2o1 [coumarin]	–	Cofactor selection Result (metabolite formation) ([3]; NADPH only (2 mM)): minimal sulfation and glucuronidation; Cofactor selection Result (metabolite formation) ([3]; No co-factors): No metabolism
